According to article PMC11961695 (Annals of oncology : official journal of the European …, 2022):
Entries after “also recorded” stand apart in the source; their conditions may differ. Read-outs that look alike come from different tables or passages of the source.

Key:
[1] = FIGHT-101 clinical pharmacokinetics
[2] = FIGHT-101 safety and tolerability
serum phosphate = test: Serum phosphate pharmacodynamics and Emax exposure-response model; settings: in vivo
[3] = tested on: refractory advanced malignancies with and without FGF/FGFR alterations; test: FIGHT-101 tumor response per investigator
[4] = tested on: locally advanced or metastatic cholangiocarcinoma; settings: cited from earlier work
[5] = all treated patients, any grade
[6] = cholangiocarcinoma with FGFR2 fusions or rearrangements (13 patients)
[7] = FIGHT-202, FGFR2 fusions or rearrangements

SMILES: CCN1C(=O)N(c2c(F)c(OC)cc(OC)c2F)Cc2cnc3[nH]c(CN4CCOCC4)cc3c21 [pemigatinib]
- Increase in average per-cycle exposure, CD versus ID regimen ([1]; 13.5 mg QD): 50%
- Dose proportionality of steady-state Cmax and AUC0–24 ([1]; 1–20 mg QD): dose-proportional increases
- Effect of a high-fat and high-calorie meal on pharmacokinetics ([1]; human, in vivo): modest effects on pemigatinib pharmacokinetics that were not considered clinically meaningful
- half-life ([1]; human, in vivo, Steady-state geometric mean terminal-phase disposition half-life, doses ≥6 mg QD): 12.1 to 15.4 h
- Dose-limiting toxicities ([2]; 1–20 mg QD, ID or CD, cycle 1): No dose-limiting toxicities were reported; also recorded: No DLTs were reported in any dose cohort; also recorded: No DLTs were encountered
- Clinically notable TEAEs ([2]; CD): 86.2%
- Dose interruptions due to TEAEs ([2]; CD): 74.1%
- Dose reductions due to TEAEs ([2]; CD): 17.2%
- Fatigue, grade ≥3 TEAE ([2]; CD): 15.5%
- Grade ≥3 TEAEs ([2]; CD): 75.9%
- Grade ≥3 hyponatremia ([2]; CD): 10.3%
- Grade ≥3 stomatitis ([2]; CD): 17.2%
- Hyperphosphatemia, any-cause TEAE ([2]; CD): 82.8%
- Hypophosphatemia events ([2]; CD): 12.1%
- Treatment discontinuations due to TEAEs ([2]; CD): 12.1%
- Clinically notable TEAEs ([2]; ID): 77.1%
- Dose interruptions due to TEAEs ([2]; ID): 32.9%
- Dose reductions due to TEAEs ([2]; ID): 5.7%
- Fatigue, grade ≥3 TEAE ([2]; ID): 5.7%
- Grade ≥3 TEAEs ([2]; ID): 50.0%
- Grade ≥3 hyponatremia ([2]; ID): 7.1%
- Grade ≥3 stomatitis ([2]; ID): 1.4%
- Hyperphosphatemia, any-cause TEAE ([2]; ID): 68.6%
- Hypophosphatemia events ([2]; ID): 18.6%
- Treatment discontinuations due to TEAEs ([2]; ID): 8.6%
- TEAEs of dry eye ([2]; all patients): 23.4%
- TEAEs of eyelash changes ([2]; all patients): 13.3%
- TEAEs of serous retinal detachment ([2]; all patients): no TEAEs of serous retinal detachment; also recorded: no serous retinal detachment events were reported
- TEAEs of vision blurred ([2]; all patients): 16.4%
- TEAEs of vitreous detachment ([2]; all patients): 1.6%
- Clinically notable TEAEs ([2]; all treated patients): 81.3%
- Dose interruption due to hypophosphatemia ([2]; all treated patients): 1.6%
- Dose interruption due to nail toxicities ([2]; all treated patients): 7.8%
- Dose interruption for hyperphosphatemia ([2]; all treated patients): 9.4%
- Dose reduction due to nail toxicities ([2]; all treated patients): 0.8%
- Dose reduction for hyperphosphatemia ([2]; all treated patients): 1.6%
- Dose reductions due to hypophosphatemia ([2]; all treated patients): none required dose reductions
- Fatigue, grade ≥3 TEAE ([2]; all treated patients): 10.2%
- Hyperphosphatemia requiring dose interruption ([2]; all treated patients): 12 n
- Hyperphosphatemia, grade ≥3 ([2]; all treated patients): 2.3%
- Nail discoloration ([2]; all treated patients): 13.3%
- Onycholysis ([2]; all treated patients): 14.8%
- Paronychia ([2]; all treated patients): 10.2%
- Patients with TEAE-related treatment discontinuation ([2]; all treated patients): 10.2%
- Patients with a TEAE ([2]; all treated patients): 99.2%
- Patients with dose interruption due to TEAEs ([2]; all treated patients): 51.6%
- Patients with dose reduction due to TEAEs ([2]; all treated patients): 10.9%
- Treatment-related TEAE ([2]; all treated patients): 90.6%
- Hyperphosphatemia, any-cause TEAE ([2]; all treated patients (N = 128), any grade): 75%
- Stomatitis requiring dose reduction ([2]; all treated patients (all CD)): 4 n
- Pneumonia requiring discontinuation ([2]; all treated patients (both ID)): 2 n
- Small intestinal obstruction requiring discontinuation ([2]; all treated patients (both ID)): 2 n
- Hyperphosphatemia, treatment-related TEAE [2, 5]: 73.4%
- Hypophosphatemia events [2, 5]: 15.6%
- Nail toxicities [2, 5]: 32.0%
- Hyperphosphatemia, treatment-related TEAE ([2]; all treated patients, grade ≥3): 1.6%
- Hypophosphatemia events ([2]; all treated patients, grade ≥3): 5.5%
- Nail toxicities ([2]; all treated patients, grade ≥3): 3.1%
- Treatment discontinuations resulting from clinically notable TEAEs ([2]; grade 3 paronychia (20 mg CD), grade 2 trichiasis (13.5 mg CD)): two
- Permanent treatment discontinuation due to hyperphosphatemia ([2]; in vivo): None of the hyperphosphatemia events resulted in permanent treatment discontinuation
- Relation of deaths due to TEAEs to treatment ([2]; in vivo): None of these deaths were considered treatment-related
- Maximum tolerated dose ([2]; monotherapy, 1–20 mg QD): not reached
- Pharmacologically active doses (serum phosphate): ≥ 4 mg
- Stable disease ([3]; FGF amplification): 20%
- Stable disease ([3]; FGFR amplification): 26.9%
- Stable disease ([3]; FGFR fusions or rearrangements): 50%
- Median PFS ([3]; FGFR fusions or rearrangements (n = 20)): 5.7 months
- Stable disease ([3]; FGFR mutations): 23.1%
- Median PFS ([3]; FGFR mutations (n = 13)): 5.0 months
- Time to disease progression, individual patient ([3]; adenoid cystic carcinoma of the head and neck, 9 mg QD (CD)): 20.5 months
- Time on treatment to PR, individual patient ([3]; adenoid cystic carcinoma of the head and neck, 9 mg QD (CD), no FGF/FGFR alterations): 6.0 months
- Disease progression ([3]; all patients (N = 128)): 38.3%
- Median PFS ([3]; all patients (N = 128)): 2.8 months
- Partial response ([3]; all patients (N = 128)): 9.4%
- Partial responses achieved, number ([3]; all patients (N = 128)): 12
- Stable disease ([3]; all patients (N = 128)): 31.3%
- Median duration of response ([3]; all responders (n = 12)): 7.3 months
- Partial response [3, 6]: 23.1%
- Stable disease [3, 6]: 61.5%
- Duration of response, individual patient ([3]; cholangiocarcinoma, FGFR2-CCDC6 fusion): 11.3 months
- Time on treatment to PR, individual patient ([3]; non-small-cell lung cancer, 9 mg QD (CD), FGF/FGFR status unknown): 6.2 months
- Duration of response, individual patient ([3]; non-small-cell lung cancer, 9 mg QD (CD), ongoing at database lock): 29.9 months
- Duration of response, individual patient ([3]; pancreatic cancer, FGFR2-USP33 fusion): 10.7 months
- Stable disease ([3]; patients with FGF/FGFR alterations): 30.4%
- ORR ([3]; patients with FGFR fusions or rearrangements): 25.0%
- ORR ([3]; patients with FGFR mutations): 23.1%
- Best median percentage change in target lesion size ([3]; patients with SD and FGF/FGFR alterations (n = 24)): −8.0%
- Median PFS ([3]; positive for FGF/FGFR alterations (n = 79)): 3.0 months
- Disease control rate [4, 7]: 82%
- Estimated median OS [4, 7]: 17.5 months
- ORR [4, 7]: 35.5%
- Disease control rate ([4]; FIGHT-202, no FGF/FGFR alterations): 22%
- Disease control rate ([4]; FIGHT-202, other FGF/FGFR alterations): 40%
